Data as given in patent US11976057B2, “MrgX2 antagonists” (GlaxoSmithKline Intellectual Property Development Limited, priority 2020, dated 2024).

molecular target: T1, human MRGPRX2 (Homo sapiens, UniProt Q96LB1); test: Ca2+ mobilization assay (FLIPR TETRA): inhibition of Cortistatin-14 mediated MRGPRX2 activation
T1 sequence (Q96LB1 1-330): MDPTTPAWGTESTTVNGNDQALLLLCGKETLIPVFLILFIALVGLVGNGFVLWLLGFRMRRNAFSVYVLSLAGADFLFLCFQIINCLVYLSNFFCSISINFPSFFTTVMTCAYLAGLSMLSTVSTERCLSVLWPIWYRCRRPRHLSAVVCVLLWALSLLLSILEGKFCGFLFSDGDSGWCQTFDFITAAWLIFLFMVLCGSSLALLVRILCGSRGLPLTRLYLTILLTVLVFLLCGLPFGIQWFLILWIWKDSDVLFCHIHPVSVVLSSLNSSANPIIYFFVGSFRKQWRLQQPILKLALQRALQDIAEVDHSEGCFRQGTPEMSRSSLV

Compound | IC50 [nM]
C[C@@H](C(=O)Nc1cnc(Oc2c(F)cccc2F)cn1)N1CCC(F)(F)[C@@H](c2cc[n+]([O-])cc2)C1 [Example 121, 4-((S)-1-((S)-1-((5-(2,6-difluorophenoxy)pyrazin-2-yl)amino)-1-oxopropan-2-yl)-4,4-difluoropiperidin-3-yl)pyridine 1-oxide] | ≤ 10
C[C@@H](C(=O)Nc1ccc(Oc2ccc(F)cc2F)cn1)[C@H]1CCC(F)(F)[C@@H](c2ccc(=O)[nH]c2)C1 [Example 280, (R)-2-((1S,3R)-4,4-difluoro-3-(6-oxo-1,6-dihydropyridin-3-yl)cyclohexyl)-N-(5-(2,4-difluorophenoxy)pyridin-2-yl)propanamide] | ≤ 10
CC(C(=O)Nc1ccc(C(=O)OC2CC2)cn1)N1CCC(F)(F)[C@@H](c2ccc(=O)[nH]c2)C1 (stereo partly drawn) [Example 83, cyclopropyl 6-(2-((S)-4,4-difluoro-3-(6-oxo-1,6-dihydropyridin-3-yl)piperidin-1-yl)propanamido) nicotinate] | 100 to 3160
CC(C(=O)Nc1ccc(CC2CCCCC2)cn1)N1CCC(F)(F)[C@@H](c2ccc(=O)[nH]c2)C1 (stereo partly drawn) [Example 27, N-(5-(cyclohexyl-methyl)pyridin-2-yl)-2-((S)-4,4-difluoro-3-(6-oxo-1,6-dihydropyridin-3-yl)piperidin-1-yl)propanamide] | 100 to 3160
C[C@@H](C(=O)Nc1ccc(Oc2ccc(F)cc2)cn1)N1CCC(F)(F)[C@@H](c2cc[n+]([O-])c(CO)c2)C1 [Example 254, 4-((S)-4,4-difluoro-1-((S)-1-((5-(4-fluorophenoxy)pyridin-2-yl)amino)-1-oxopropan-2-yl)piperidin-3-yl)-2-(hydroxymethyl)pyridine 1-oxide] | ≤ 10
C[C@@H](C(=O)Nc1ccc(/C=C\C2CC2)cn1)N1CCC(F)(F)[C@@H](c2ccc(=O)[nH]c2)C1 [Example 80, (S)-N-(5-((Z)-2-cyclopropylvinyl)pyridin-2-yl)-2-((S)-4,4-difluoro-3-(6-oxo-1,6-dihydropyridin-3-yl)piperidin-1-yl)propanamide] | 10 to 100
CC(C(=O)Nc1ccc(-c2ccn(C)n2)cn1)N1CCC(F)(F)[C@@H](c2ccc(=O)[nH]c2)C1 (stereo partly drawn) [Example 55, 2-((S)-4,4-difluoro-3-(6-oxo-1,6-dihydropyridin-3-yl)piperidin-1-yl)-N-(5-(1-methyl-1H-pyrazol-3-yl)pyridin-2-yl)propanamide] | 3160 to 31600
C[C@@H](C(=O)Nc1ccc(Oc2ccc(F)cc2F)cn1)N1CCC(F)(F)[C@@H](c2ccc(=O)[nH]c2)C1 [Example 4, (S)-2-((S)-4,4-difluoro-3-(6-oxo-1,6-dihydropyridin-3-yl)piperidin-1-yl)-N-(5-(2,4-difluorophenoxy)pyridin-2-yl)propanamide] | ≤ 10
CC(C(=O)Nc1ccc(Oc2ccccc2)cn1)N1CCC(F)(F)C(c2c[nH]c(=O)c(N)c2)C1 (centres unmarked) [Example 139, 2-(3-(5-amino-6-oxo-1,6-dihydropyridin-3-yl)-4,4-difluoropiperidin-1-yl)-N-(5-phenoxypyridin-2-yl)propanamide] | 10 to 100
C[C@@H](C(=O)Nc1ccc(Oc2ccc(F)cc2F)cn1)N1CCC(F)(F)C(c2cc(C(O)C(F)(F)F)c[n+]([O-])c2)C1 (mixture of isomers) [Example 266, 3-(1-(1-((5-(2,4-difluorophenoxy)pyridin-2-yl)amino)-1-oxopropan-2-yl)-4,4-difluoropiperidin-3-yl)-5-(2,2,2-trifluoro-1-hydroxyethyl)pyridine 1-oxide] | 10 to 100
C[C@@H](C(=O)Nc1ccc(OCC2CC2)nn1)N1CCC(F)(F)C(c2c[nH]c(=O)c(C#N)c2)C1 (stereo partly drawn) [Example 223, (2S)-2-(3-(5-cyano-6-oxo-1,6-dihydropyridin-3-yl)-4,4-difluoropiperidin-1-yl)-N-(6-(cyclopropylmethoxy)pyridazin-3-yl)propanamide] | 10 to 100
C[C@@H](C(=O)Nc1ccc(OCC2CC2)nn1)N1CCC(F)(F)[C@@H](c2ccc(=O)[nH]c2)C1 [Example 8, N-(6-(cyclopropylmeth-oxy)pyridazin-3-yl)-2-((S)-4,4-difluoro-3-(6-oxo-1,6-dihydropyridin-3-yl)piperidin-1-yl)propanamide] | 10 to 100
C[C@@H](C(=O)Nc1ccc(Oc2ccncn2)cn1)N1CCC(F)(F)[C@@H](c2ccc(=O)[nH]c2)C1 [Example 74, (S)-2-((S)-4,4-difluoro-3-(6-oxo-1,6-dihydropyridin-3-yl)piperidin-1-yl)-N-(5-(pyrimidin-4-yloxy)pyridin-2-yl)propanamide] | 100 to 3160
CC(C(=O)Nc1ncc(Oc2ccc(F)cc2F)cc1F)N1CCC(F)(F)[C@@H](c2ccc(=O)[nH]c2)C1 (stereo partly drawn) [Example 87, 2-((S)-4,4-difluoro-3-(6-oxo-1,6-dihydropyridin-3-yl)piperidin-1-yl)-N-(5-(2,4-difluorophenoxy)-3-fluoropyridin-2-yl)propanamide] | ≤ 10
C[C@@H](C(=O)Nc1ccc(Oc2ccc(F)c(F)c2F)cn1)N1CCC(F)(F)[C@@H](c2cc[n+]([O-])cc2)C1 [Example 131, 4-((S)-4,4-difluoro-1-((S)-1-oxo-1-((5-(2,3,4-trifluorophenoxy)pyridin-2-yl)amino)propan-2-yl)piperidin-3-yl)pyridine 1-oxide] | ≤ 10
C[C@@H](C(=O)Nc1ccc(OCC2CC2)nn1)N1CCC(F)(F)[C@@H](c2c[nH]c(=O)c(CN)c2)C1 [Example 203, (S)-2-((S)-3-(5-(aminomethyl)-6-oxo-1,6-dihydropyridin-3-yl)-4,4-difluoropiperidin-1-yl)-N-(6-(cyclopropylmethoxy)pyridazin-3-yl)propanamide] | 10 to 100
CC(C(=O)Nc1ccc(OC2CCC2)cn1)N1CCC(F)(F)[C@@H](c2ccc(=O)[nH]c2)C1 (stereo partly drawn) [Example 78, N-(5-cyclobutoxy-pyridin-2-yl)-2-((S)-4,4-difluoro-3-(6-oxo-1,6-dihydropyridin-3-yl)piperidin-1-yl)propanamide] | 100 to 3160
CC(C(=O)Nc1cc2ccn(CC3CC3)c2cn1)N1CCC(F)(F)[C@@H](c2ccc(=O)[nH]c2)C1 (stereo partly drawn) [Example 51, N-(1-(cyclopropyl-methyl)-1H-pyrrolo[2,3-c]pyridin-5-yl)-2-((S)-4,4-difluoro-3-(6-oxo-1,6-dihydropyridin-3-yl)piperidin-1-yl)propanamide] | 100 to 3160
C[C@@H](C(=O)Nc1ccc(F)cn1)N1CCC(F)(F)[C@@H](c2c[nH]c(=O)c(N)n2)C1 [Example 106, (S)-2-((R)-3-(6-amino-5-oxo-4,5-dihydropyrazin-2-yl)-4,4-difluoropiperidin-l-y1)-N-(5-fluoropyridin-2-yl) propanamide] | 10 to 100
CC(C(=O)Nc1ccc(Oc2ccc(F)cc2)cn1)N1CCC(F)(F)C(c2c[nH]c(=O)c(CNCCO)c2)C1 (centres unmarked) [Example 238, 2-(4,4-difluoro-3-(5-(((2-hydroxyethyl)amino)methyl)-6-oxo-1,6-dihydropyridin-3-yl)piperidin-1-yl)-N-(5-(4-fluorophenoxy)pyridin-2-yl)propanamide] | ≤ 10
C[C@@H](C(=O)Nc1ccc(Cl)cn1)N1CCC[C@@H](c2ccc(=O)n(C)c2)C1 [Example 176, (S)—N-(5-chloropyridin-2-yl)-2-((S)-3-(1-methyl-6-oxo-1,6-dihydropyridin-3-yl)piperidin-1-yl)propanamide] | 3160 to 31600
C[C@@H](C(=O)Nc1ccc(Oc2ccc(F)cc2F)cn1)N1CCC(F)(F)[C@@H](c2cc[n+]([O-])c(CO)c2)C1 [Example 255] | ≤ 10
C[C@@H](C(=O)Nc1ccc(C2CCC2)cn1)N1CCC(F)(F)[C@@H](c2ccc(=O)[nH]c2)C1 [Example 18, (S)-N-(5-cyclobutylpyridin-2-yl)-2-((S)-4,4-difluoro-3-(6-oxo-1,6-dihydropyridin-3-yl)piperidin-1-yl)propanamide] | 100 to 3160
C[C@@H](C(=O)Nc1ccc(Oc2ccc(F)cn2)cn1)[C@H]1CCC[C@@H](c2ccc(=O)[nH]c2)C1 [Example 283, (R)-N-(5((5-fluoropyridin-2-yl)oxy)pyridin-2-yl)-2-((1S,3R)-3-(6-oxo-1,6-dihydropyridin-3-yl)cyclohexyl)propanamide] | ≤ 10
C[C@@H](C(=O)Nc1cnc(Oc2ccc(F)cc2F)cn1)[C@H]1CCC[C@@H](c2ccc(=O)[nH]c2)C1 [Example 286, (R)-N-(5-(2,4-difluorophenoxy)pyrazin-2-yl)-2-((1S,3R)-3-(6-oxo-1,6-dihydropyridin-3-yl)cyclohexyl)propanamide] | ≤ 10
C[C@@H](C(=O)Nc1ccc(F)cn1)N1CCC(F)(F)[C@@H](c2ccc(=O)[nH]c2)C1 [Example 79, (S)-2-((S)-4,4-difluoro-3-(6-oxo-1,6-dihydropyridin-3-yl)piperidin-1-yl)-N-(5-fluoropyridin-2-yl)propanamide] | 10 to 100
C[C@@H](C(=O)Nc1ccc(/C=C/C2CC2)cn1)N1CCC(F)(F)[C@@H](c2ccc(=O)[nH]c2)C1 [Example 10] | 10 to 100
C[C@@H](C(=O)Nc1cnc(Oc2ccc(F)c(F)c2F)cn1)N1CCC(F)(F)[C@@H](c2cc[n+]([O-])cc2)C1 [Example 122, 4-((S)-4,4-difluoro-1-((S)-1-oxo-1-((5-(2,3,4-trifluorophenoxy)pyrazin-2-yl)amino)propan-2-yl)piperidin-3-yl)pyridine 1-oxide] | ≤ 10
CC(C(=O)Nc1ccc(F)cn1)N1CCC(F)(F)C(c2cc[n+]([O-])c(C(O)C(F)(F)F)c2)C1 (centres unmarked) [Example 256, 4-(4,4-difluoro-1-(1-((5-fluoropyridin-2-yl)amino)-1-oxopropan-2-yl)piperidin-3-yl)-2-(2,2,2-trifluoro-1-hydroxyethyl)pyridine 1-oxide] | 10 to 100
